For one assay, the system named is MDA-MB-231 cells. The assay can be described thus: Cancer cell killing, GI-101 and Ribociclib, MDA-MB-231 with PBMCs. It counts as cell-based, human. The note with it: GI-101 100 nM, Ribociclib 913 nM, 24 hours, compared with co-culturing only cancer cells and PBMCs. From the text: This experiment was to evaluate the effect of killing cancer cells by treating MDA-MB-231 cells (human breast cancer cells) with the test substance GI-101 alone or in combination with Ribociclib substance in an in vitro environment.
MDA-MB-231 cells were purchased from the Korea cell line bank and cultured in RPMI1640 medium (Gibco) containing 10% FBS (Gibco) and 1% antibiotic/antifungal agent (Gibco). For use in cancer cell killing test, the cells were harvested using trypsin (Gibco), and then suspended in RPMI1640 medium, and then dead cells and debris were removed using Ficoll (GE Healthcare Life Sciences) solution. The cells suspended in RPMI1640 medium were carefully layered on ficoll solution. […]
In order to identify the effect of killing the cells, a CytoTox Green reagent ([…]™ CytoTox Green, Satorius) that binds to the DNA of cells to be killed was prepared in 1 μl per 1 mL of RPMI1640 medium containing 5% human AB serum (Sigma). The prepared medium was used for dilution of the test substance, and the effect of killing the cells could be quantitatively identified by staining the cells to be killed when the test substance was co-cultured with cancer cell lines and PBMCs. […]

The test system of the next assay is HCT116 cells. The assay can be described thus: Cancer cell killing, GI-101 and Cetuximab, HCT116 with NK cells. The format is cell-based, human. The conditions noted are these: GI-101 100 nM, Cetuximab 68.6 nM, 24 hours.
The next assay deals with CT26 cells. The assay can be described thus: mGI-101 and Guadecitabine in CT26 allotransplanted tumor model. It counts as in vivo, BALB/c mice. The note with it: for tumor size level vs control: day 10, alone or + Guadecitabine. From the text:
CT26 cells were purchased from ATCC (USA) and cultured in RPMI1640 medium (Gibco) containing 10% FBS (Gibco) and 1% antibiotic/antifungal agent (Gibco). The cultured cells were harvested using trypsin (Gibco) and then suspended in PBS. In order to establish an allotransplanted tumor model, 5×10^5 of CT26 cells were subcutaneously injected into the right flank of BALB/c female mice (8-week-old) (FIG. 97).
The tumor grafts of the mice were identified about day 7 after cell inoculation, and the mice were randomly assigned based on tumor volume (50-120 mm^3), each group including 13 mice.
Clinical symptoms such as a disease and a behavioral change were observed once a day during the test period, and deceased animals were identified, and the mice were sacrificed when the tumor size reached a size of 4,000 mm^3. The size of the CT26 solid cancer was measured using a tumor 3D scanner (TM900, Peria, Belgium). […] The anti-tumor efficacy was evaluated as compared with the vehicle control. All statistical calculations were performed using Prism 8.0 (Graph Pad Software Inc, USA). The comparison of tumor volume measurements was made through two-way analysis of variance followed by Tukey's multiple comparison test. A p value of less than 0.05 was considered significant.

Assay [1] relates to CT-26 cancer cell line. The assay can be described thus: mGI101 in mice transplanted with CT-26 (Exp. Ex. 19). It counts as in vivo, BALB/c mice.
Assay [2] deals with CT-26 cancer cell line. The assay can be described thus: mGI101 in mice transplanted with CT-26 (Exp. Ex. 15).
Protocol: BALB/c mice (female, 7-week-old) purchased from Orient Bio were subjected to an acclimation period of 7 days. Then, 5×10^6 cells of CT-26 cancer cell line (ATCC, USA) were mixed with 0.05 ml of […] ™ matrix phenol red-free (BD), and allotransplantation of the mixture was performed by subcutaneous administration at 0.1 ml in the right dorsal region of the mice. A certain period of time after the cancer cell transplantation, the tumor volume was measured and subjects that reached about 28 mm^3 were selected, and then the selected mice were grouped evenly based on tumor size and body weight, each group including 10 mice. Thereafter, using a disposable syringe (31G, 1 ml), hIgG4 was administered at a dose of 6 mg/kg to a negative control. For experimental groups, mGI101 at a dose of 3 mg/kg, 6 mg/kg, or 12 mg/kg was administered intravenously thereto. A total of three administrations were given once every three days after the first administration. The tumor size was measured daily.
Setting [3] is: 6 mg/kg i.v., vs negative control.

Entries after “also recorded” stand apart in the source; their conditions may differ.

Description for HCT116 cells: HCT116 cells were purchased from the Korea cell line bank and cultured in McCoy's 5A medium (ATCC) containing 10% FBS (Gibco) and 1% antibiotic/antifungal agent (Gibco). For use in cancer cell killing test, the cells were harvested using trypsin (Gibco), and then suspended in McCoy's 5A medium, and then dead cells and debris were removed using Ficoll (GE Healthcare Life Sciences) solution. The cells suspended in McCoy's 5A medium were carefully layered on ficoll solution. The cell layer with a low specific gravity formed by centrifuging at room temperature at 350×g for 20 minutes was collected with a pipette, washed with PBS (Gibco), and then centrifuged at room temperature at 350×g for 5 minutes. The separated cell layer was made into a suspension of 2×10^5 cells/mL with FBS-free RPMI1640 medium. […]
In order to identify the effect of killing the cells, a CytoTox Green reagent ([…] ™ CytoTox Green, Satorius) that binds to the DNA of cells to be killed was prepared in 1 μl per 1 mL of RPMI1640 medium containing 5% human AB serum (Sigma). The prepared medium was used for dilution of the test substance, and the effect of killing the cells could be quantitatively identified by staining the cells to be killed when the test substance was co-cultured with cancer cell lines and PBMCs. […]

With “GI101: fusion protein: human CD80 fragment, Ig hinge, Fc domain, linker, IL-2 variant (2M) (R38A, F42A); SEQ ID NO: 9”, the “effect of killing cancer cells” value with MDA-MB-231 cells was “co-culturing only cancer cells and PBMCs, the effect of killing cancer cells was identified, and tended to be higher than that of treatment with GI-101 alone”. Also, the “level of killing cancer cells” value with HCT116 cells is reported as “high level of killing cancer cells”.

“mGI101: fusion protein: mouse CD80, Ig hinge, Fc domain, linker, IL-2 variant (2M) (R38A, F42A); SEQ ID NO: 15”: the “tumor size level vs control” value in the assay on CT26 cells (mGI-101 0.6 mg/kg) is listed as “tended to be lower”; in the assay with CT26 cells (mGI-101 3 mg/kg), “statistically significantly lower”. Further, the “tumor growth inhibitory effect (individual tumor sizes)” value in the assay with CT26 cells (mouse, in vivo) is “exhibited the tumor growth inhibitory effect”. The “tumor volume / tumor size” value in the assay on CT-26 cancer cell line [1] (setting [3]) is recorded as “significant inhibition of tumor size”. For the same substance, the “tumor growth inhibition rate / anticancer efficacy” value with CT-26 cancer cell line [1] (compared with combination of mCD80 4.9 mg/kg and Fc-IL-2v (GI101C2) 2.8 mg/kg) is recorded as “excellent tumor growth inhibition rate; also recorded: excellent anticancer efficacy”. Besides, the tumor inhibitory efficacy entry in the assay with CT-26 cancer cell line [1] (compared with respective mCD80 and IL-2v single formulations) is reported as “had tumor inhibitory efficacy”. For the same substance, the Tumor growth inhibition entry in the assay with CT-26 cancer cell line [2] (6 mg/kg and 12 mg/kg i.v., three administrations, vs negative control (hIgG4)) is given as “significant tumor growth inhibition”. For the same substance, in the assay on CT-26 cancer cell line [2] (setting [3]), the survival rate entry is recorded as “significant improvement”.

Source of the values: patent publication US11857601B2, “Pharmaceutical composition for cancer treatment comprising fusion protein including IL-2 protein and CD80 protein and anticancer drug” (GI INNOVATION, INC., priority 2020, dated 2024).
